Laboratory results published in patent publication US20260315494A1, “TREATMENT OF BREAST TISSUE” (Havah Therapeutics Pty Ltd, priority 2023, published 2026).
Values joined by “and” are separate entries in the source; they are usually repeats but may differ in a detail not shown here. Identical values can stand only once.

How the values were obtained:
5α-reductase = conditions: increasing DHT in the breast, McNamara 2014; cited from earlier work
human mTOR = test: Western blot of mTOR in breast cancer explants treated with DHT; format: cell-based; conditions: for mTOR Western blot ratio to beta-Actin, average: average of 3 patients; for mTOR Western blot ratio to beta-Actin, average / mTOR Western blot ratio to beta-Actin: 5 nM anastrozole, 24 h; for mTOR Western blot ratio to beta-Actin: individual patient
Protocol: (§1) To evaluate the effect of DHT on breast cancer tissue, 3 primary tumours were examined in the presence of a low anastrozole level of 5 nM employing a modification of the method described by Jankovic-Karasoulos T. et al., 2008.
(§2) The 3 explant invasive breast carcinomas were examined for expression of mTOR and c-Myc and response to exposure to DHT by Western blotting. […] The band density was measured by densitometry, using Image Master VDS and Image Quant Analysis Software (Amersham Pharmacia Biotech, Hong Kong). The relative protein levels of mTOR or MYC and b-actin in the original total protein lysate from the breast preparations were obtained. mTOR or MYC protein expression was normalized to beta-actin protein expression. Immunizing host antibodies were produced with a synthetic peptide derived from the sequence of human mTOR or MYC, purified by peptide affinity chromatography and confirmed using control peptides. The results of the Western blot analysis for mTOR or MYC proteins in the 3 explant samples at baseline and after 24 hours of culture are shown in Table 3 and Table 4 for mTOR or MYC respectively. Cell lysates were immunoblotted with antibodies to mTOR or MYC. The experiment was performed twice with similar results. Data are expressed relative to beta-actin.

[1] = tested on: endogenous AR pathways / ER-mediated transcriptional activity; conditions: human explant tissue and breast cancer cell lines; cited from earlier work
PCa cells = conditions: cited from earlier work
human MYC = test: Western blot of MYC in breast cancer explants treated with DHT; format: cell-based; conditions: for MYC Western blot ratio to beta-Actin / MYC Western blot ratio to beta-Actin, average: 24 h
Protocol: as §1, §2

androgen receptor (AR) = conditions: tumoural DHT from 1 nM up to 10 nM, Hickey 2021; cited from earlier work
AR/GATA3 = conditions: Hosseinzadeh 2024; cited from earlier work
aromatase = conditions: increasing DHT in the breast, Perel; cited from earlier work
[2] = Single-dose pharmacokinetics of T+Ai pellet implant (80 mg testosterone + 4 mg anastrozole, subcutaneous); conditions: for concentration at 1 h: 1 h post-dose; for concentration at 2 h: 2 h post-dose; for concentration at 4 h: 4 h post-dose; for concentration at 8 h: 8 h post-dose; for concentration at 12 h: 12 h post-dose; for concentration at 24 h: 24 h post-dose; for concentration at 72 h: 72 h post-dose; for concentration at 1680 h: 1680 h post-dose; for concentration at 2016 h: 2016 h post-dose
Protocol: The premenopausal women were aged between 35 and 55 years of age with a BMI range of 20-30 kg/m^2. […] The implant was intended to be left in situ and was expected to be almost completely absorbed within three months following insertion.
A total of 11 subjects were dosed with the implant and included in the safety analysis set. All 11 subjects were included in the pharmacokinetics (PK) analysis set.
(NB: the sample collection time point at 6 hours post-dose was added for the third and subsequent subject and so serum measurements were not determined for the first two subjects as noted below).
Patients seeking treatment with the T+Ai for reduction in high MBD were eligible for the study. Following successful screening, subjects attended the Wellend Health Clinic for dosing. The trial was designed to dose all subjects while in the luteal phase of their menstrual cycle to avoid the highly changing hormonal environment of the follicular phase. Following insertion of the implant, PK blood sampling was carried out for a duration of three months (see below). Briefly, samples were taken repeatedly on the day of dosing, daily during the first week, weekly for the next four weeks and every second week during the last eight weeks of a total sampling period of three months.
The sampling schedule was revised with the addition of one blood sample (at 6 hours post-dose as discussed above), and no adjustment of the timing of existing time points was made. The duration of sampling was not extended.
Following dosing on Day 1, blood samples were taken pre-dose (within one hour of dosing) and at 1, 2, 4, 6, 8 and 12 hours. Participants returned for a blood sample to be taken at 9 am in the morning on Days 2, 3, 4, 5, 8, 15, 22, 29, 43, 57, 71 and 85.

CRPC = conditions: with a CDK4/6 inhibitor, Han 2022; cited from earlier work
breast tissue = conditions: high dose androgen (testosterone), Raths 2023; cited from earlier work
breast = conditions: injected prior to breast cancer surgery; cited from earlier work
[3] = on the basis of the present results
[4] = human, in vivo, sc, 80 mg, Measured serum testosterone, GeoMean, geometric mean
[5] = human, in vivo, sc, 80 mg, Measured serum testosterone, mean
[6] = human, in vivo, sc, 80 mg, Measured serum testosterone, median

SMILES: C[C@]12CCC(=O)C[C@@H]1CC[C@@H]1[C@@H]2CC[C@]2(C)[C@@H](O)CC[C@@H]12 [DHT, 5α-dihydrotestosterone]
- 5α-reductase in breast tissue (5α-reductase): up regulation of 5α-reductase
- mTOR expression in words (human mTOR; 0.1 nM DHT): markedly elevated
- mTOR Western blot ratio to beta-Actin, average (human mTOR; 0.1 nM DHT): 1.01
- mTOR Western blot ratio to beta-Actin (human mTOR; 0.1 nM DHT): 0.81 and 1.01 and 1.23
- mTOR expression in words (human mTOR; 1 nM DHT): barely discernable
- mTOR Western blot ratio to beta-Actin, average (human mTOR; 1 nM DHT): 0.04
- mTOR Western blot ratio to beta-Actin (human mTOR; 1 nM DHT): 0.04 and 0.02 and 0.06
- mTOR expression in words (human mTOR; 10 nM DHT): essentially not detected
- mTOR Western blot ratio to beta-Actin, average (human mTOR; 10 nM DHT): 0.04
- mTOR Western blot ratio to beta-Actin (human mTOR; 10 nM DHT): 0.03 and 0.05 and 0.04
- DHT concentration required to inhibit induction of mTOR activity (human mTOR; [3]): at least 1 nM
- ER-mediated transcriptional activity [1]: can activate endogenous AR pathways to inhibit ER-mediated transcriptional activity
- c-Myc expression associated with AR dimer (PCa cells; elevated DHT levels): reduction in c-Myc expression
- mTOR activity associated with AR monomer (PCa cells; low level DHT): elevated mTOR activity
- Myc expression in words (human MYC; 0.1 nM DHT): markedly elevated
- suppression of c-Myc (human MYC; 0.1 nM DHT): unable to suppress c-Myc
- MYC Western blot ratio to beta-Actin (human MYC; 0.1 nM DHT, individual patient, 5 nM anastrozole): 1.01 and 1.23
- Myc expression in words (human MYC; 1 nM DHT): barely discernable
- MYC Western blot ratio to beta-Actin (human MYC; 1 nM DHT, individual patient, 5 nM anastrozole): 0.02 and 0.06
- Myc expression in words (human MYC; 10 nM DHT): essentially not detected
- MYC Western blot ratio to beta-Actin (human MYC; 10 nM DHT, individual patient, 5 nM anastrozole): 0.05 and 0.04
- MYC Western blot ratio to beta-Actin (human MYC; 0.0001 µM): 0.39
- MYC Western blot ratio to beta-Actin, average (human MYC; 0.0001 µM): 1.01
- MYC Western blot ratio to beta-Actin (human MYC; 0.001 µM): 0.04
- MYC Western blot ratio to beta-Actin, average (human MYC; 0.001 µM): 0.04
- MYC Western blot ratio to beta-Actin (human MYC; 0.01 µM): 0.03
- MYC Western blot ratio to beta-Actin, average (human MYC; 0.01 µM): 0.04
- suppression of c-Myc (human MYC; intra-tumoural DHT from 1 to 10 nM): results in suppression of c-Myc
- DHT concentration required for suppression of cMyc (human MYC; [3]): at least 1 nM
- AR tumour suppressor induction (androgen receptor (AR)): can induce androgen receptor (AR) to become a tumour suppressor of estrogen receptor (ER) positive breast cancer
- AR/GATA3 binding (AR/GATA3): induces AR/GATA3 binding
- aromatase in breast tissue (aromatase): down regulation of aromatase
- serum DHT ([2]; most samples): not measurable in most samples

SMILES: C[C@]12CC[C@H]3[C@@H](CCC4=CC(=O)CC[C@@]43C)[C@@H]1CC[C@@H]2O [Testosterone, testosterone]
- efficacy of high-testosterone treatment with CDK4/6 inhibitor (CRPC): enhanced by a CDK4/6 inhibitor
- breast ductal structures (breast tissue): breast ductal structures shrunk
- average serum testosterone concentration at 12 weeks ([2]; 12 weeks post-dose, 120960 min): 0.8 ng/mL
- increase in serum testosterone compared with baseline ([2]; all subjects, 12 weeks): sustained in all subjects at 12 weeks
- average serum testosterone at baseline ([2]; baseline, before implant): 0.2 ng/mL
- Measured serum testosterone, GeoMean ([2]; geometric mean, pre-dose): 0.19 ng/mL
- Tmax ([2]; human, in vivo, sc, 80 mg): 6 to 12 h
- concentration at 1 h [2, 4]: 0.49 ng/mL
- concentration at 2 h [2, 4]: 0.6 ng/mL
- concentration at 4 h [2, 4]: 0.94 ng/mL
- concentration at 6 h ([2]; human, in vivo, sc, 80 mg, Measured serum testosterone, GeoMean, geometric mean, 6 h post-dose): 2.53 ng/mL
- concentration at 8 h [2, 4]: 3.29 ng/mL
- concentration at 12 h [2, 4]: 3.36 ng/mL
- concentration at 24 h [2, 4]: 2.39 ng/mL
- concentration at 72 h [2, 4]: 1.63 ng/mL
- concentration at 1680 h [2, 4]: 0.99 ng/mL
- concentration at 1680 h ([2]; human, in vivo, sc, 80 mg, Measured serum testosterone, individual subject): 0.791 ng/mL
- concentration at 1 h [2, 5]: 0.55 ng/mL
- concentration at 2 h [2, 5]: 0.73 ng/mL
- concentration at 4 h [2, 5]: 1.43 ng/mL
- concentration at 8 h [2, 5]: 3.55 ng/mL
- concentration at 12 h [2, 5]: 3.43 ng/mL
- concentration at 24 h [2, 5]: 2.45 ng/mL
- concentration at 48 h ([2]; human, in vivo, sc, 80 mg, Measured serum testosterone, mean, 48 h post-dose): 1.83 ng/mL
- concentration at 72 h [2, 5]: 1.73 ng/mL
- concentration at 168 h ([2]; human, in vivo, sc, 80 mg, Measured serum testosterone, mean, 168 h post-dose): 1.53 ng/mL
- concentration at 504 h ([2]; human, in vivo, sc, 80 mg, Measured serum testosterone, mean, 504 h post-dose): 2.26 ng/mL
- concentration at 1344 h ([2]; human, in vivo, sc, 80 mg, Measured serum testosterone, mean, 1344 h post-dose): 1.25 ng/mL
- concentration at 1680 h [2, 5]: 1 ng/mL
- concentration at 2016 h [2, 5]: 0.83 ng/mL
- concentration at 1 h [2, 6]: 0.47 ng/mL
- concentration at 2 h [2, 6]: 0.51 ng/mL
- concentration at 4 h [2, 6]: 0.92 ng/mL
- concentration at 1008 h ([2]; human, in vivo, sc, 80 mg, Measured serum testosterone, median, 1008 h post-dose): 1.4 ng/mL
- concentration at 1680 h [2, 6]: 1 ng/mL
- concentration at 2016 h [2, 6]: 0.85 ng/mL
- Measured serum testosterone, mean ([2]; mean, pre-dose): 0.21 ng/mL
- Measured serum testosterone, median ([2]; median, pre-dose): 0.19 ng/mL
- average Cmax, serum testosterone ([2]; serum): 4.1 ng/mL
- median Tmax for serum testosterone ([2]; serum, post-dose): 8 h

SMILES: C[C@]12CCC(=O)C[C@@H]1CC[C@@H]1[C@@H]2CC[C@]2(C)[C@@H](O)CC[C@@H]12 [radioactive DHT]
- accumulation of radioactive DHT (breast): initially accumulated in the fat of the breast then strongly accumulated in the malignancy
